{"source": "patent US20040186274A1", "about": "“Methylation of histone h4 at arginine 3” (priority 2001, published 2004)", "tested_on": "H4-Arg 3 methylation in HeLa cells", "test": "TSA treatment of HeLa cells, methylation state of H4-Arg 3 in isolated core histones", "assay_type": "cell-based, human", "details": "twelve hours after TSA treatment, hyperacetylated H4", "experimental": "To determine whether this inhibition occurs in vivo, HeLa cells were treated with a histone deacetylase inhibitor, Tricostatin A (TSA), to induce hyperacetylation. Twelve hours after TSA treatment, core histones were isolated, and the methylation state of H4-Arg 3 was analyzed. […] Therefore, hyperacetylation on lysine residues correlates with hypomethylation of H4 Arg 3.", "data": [{"smiles": "CC(/C=C/C(=O)NO)=C\\[C@@H](C)C(=O)c1ccc(N(C)C)cc1", "note": "[Tricostatin A]", "values": [{"measurement": "H4 Arg 3 methylation level", "value": "almost undetectable"}]}]}
